In patent USRE48461E1, “Modulation of androgen receptor expression” (Ionis Pharmaceuticals, Inc., priority 2012, dated 2021):
Oligonucleotides are written 5' to 3', each unit as a sugar letter and its base; * is a phosphorothioate linkage, no mark a phosphodiester; rarer units and linkages stand in square brackets, end groups in braces. Plain capitals give the bases only. k = constrained ethyl (cEt); [5mC] = 5-methylcytosine; d = 2'-deoxy (DNA)

What was measured:
full-length AR = test: Western blot of full-length AR in MDV3100-resistant C4-2B cells; type: cell-based, human
AR-V7 = test: Western blot of AR-V7 in MDV3100-resistant C4-2B cells; type: cell-based, human
Protocol: ISIS 549372, ISIS 549434, and ISIS 554221 at 1 μM concentration of antisense oligonucleotide were each added to the culture media at 1 μM concentration for free uptake by the cells. After a treatment period of 2 days, cells were harvested in RIPA buffer containing protease inhibitors. The presence of bands for full-length AR, as well as the variant form, AR-V7, was detected by western blot using AR antibody (N-20, Santa Cruz).
Western analysis of full-length AR, as well as the AR-V7 variant, was also conducted in a manner similar to the assay described above.

total AR mRNA = test: Total (full-length) AR mRNA in C4-2B MR cells, free uptake; type: cell-based, human; settings: C4-2B MR cells, 0.04-5.00 μM free uptake, 24 hrs
Protocol: Cells were plated at a density of 40,000 cells per well in 96-well plates and cultured in RPMI1640 medium with 10% fetal bovine serum. […] ISIS 549372, ISIS 549458, ISIS 549434, and ISIS 554221 were each added at 0.04 μM, 0.20 μM, 1.00 μM, and 5.00 μM concentrations of antisense oligonucleotide to culture media for free uptake by the cells. […] After a treatment period of 24 hrs, total AR mRNA levels were measured by quantitative real-time PCR using primer probe set RTS3559.

KLK3 mRNA = KLK3 mRNA (AR target gene) in C4-2B MR cells; type: cell-based, human; settings: C4-2B MR cells, 0.04-5.00 μM
KLK2 mRNA = KLK2 mRNA (AR target gene) in C4-2B MR cells; type: cell-based, human; settings: C4-2B MR cells, 0.04-5.00 μM
C4-2B MR cells = test: Proliferation of MDV3100-resistant C4-2B cells (CellTiter 96); type: cell-based, human; settings: 0.04-5.00 μM, 6 days
Protocol: ISIS 549372, ISIS 549434, ISIS 549458, and ISIS 554221 were each added to the culture media at 0.04 μM, 0.20 μM, 1.00 μM, and 5.00 μM concentration of antisense oligonucleotide. ISIS 347526 was included as a negative control. After a treatment period of 6 days, the proliferative capacity of the cancer cells was measured with using CellTiter 96® AQueous One Solution Cell Proliferation kit (Promega), following the manufacturer's instructions. Results are presented in Table 41 as percent inhibition of proliferation, relative to non-treated cells.

C4-2B cells [1] = test: C4-2B cell proliferation, ASO in combination with MDV3100 (Example 19); type: cell-based, human
Protocol: C4-2B cells were plated at 1,500 cells per well. […] ISIS 347526 was included as a negative control. […] After a treatment period of 6 days, the proliferative capacity of the cancer cells was measured with CellTiter 96® AQueous One Solution Cell Proliferation kit (Promega), following the manufacturer's instructions. Results are presented in Table 46 as percent inhibition of proliferation, relative to non-treated cells. Treatment of the cells with ISIS 549372 or ISIS 549458 reduced proliferation of the cells more extensively than treatment with ISIS 554221.

AR full-length mRNA = AR full-length mRNA in CWR22-RV1 cells (RNAiMax, RTS3559); type: cell-based, human; settings: 6 days
[2] = test system: V7 splice variant of the AR mRNA; test: AR V7 splice variant mRNA in CWR22-RV1 cells (RT-PCR SYBR Green); type: cell-based, human; settings: RNAiMax, 6 days
CWR22-RV1 cells = test: CWR22-RV1 cell proliferation (CellTiter 96); type: cell-based, human; settings: RNAiMax, 6 days
AR mRNA [3] = test: AR mRNA in C4-2B cells by free uptake (hAR_LTS00943); type: cell-based, human; settings: 24 hrs; for Percent inhibition of AR full-length mRNA: free uptake
Protocol: (§1) Cells were plated at a concentration of 1,000 cells/well in 96-well plates to measure cell proliferation, and at 4,000 cells/well to measure target reduction. ISIS 549458, ISIS 549372, ISIS 549434, and ISIS 554221 were added individually at 0.04 μM, 0.20 μM, 1.00 μM, or 5.00 μM. After an incubation period of 24 hrs, mRNA levels were measured using hAR_LTS00943.

C4-2B cells [4] = test: C4-2B cell proliferation by free uptake (MTT); type: cell-based, human; settings: day 6
Protocol: as §1
On day 6, cells plated for measuring proliferation were incubated with MTT reagent until the development of color. Color intensity was measured using a spectrophotometer at 490 nm.

AR mRNA [5] = test: AR mRNA expression in MDA-MB-453 breast cancer orthotopic model; type: in vivo, human; settings: Study 1; TB-interface, normalized to actin; 50 mg/kg s.c. five times a week for 4 weeks
MDA-MB-453 tumor = test: Tumor volume in MDA-MB-453 breast cancer orthotopic model; type: in vivo, NSG mice; settings: 50 mg/kg s.c. five times a week for 4 weeks; for Tumor volume: Study 1, MDA-MB-453 orthotopic, NSG mice
[6] = cynomolgus monkey, in vivo, sc, 40 mg/kg
[7] = cynomolgus monkey, in vivo, sc, 40 mg/kg; remark: listed apart in the source
Protocol: Prior to the study, the monkeys were kept in quarantine for a 30-day period, during which the animals were observed daily for general health. The monkeys were 2-4 years old and weighed between 2 and 4 kg. Thirteen groups of four randomly assigned male cynomolgus monkeys each were injected subcutaneously with ISIS oligonucleotide or PBS. PBS solution or ISIS oligonucleotides, at a dose of 40 mg/kg, were administered with a loading regimen consisting of four doses on the first week of the study (days 1, 3, 5, and 7), followed by a maintenance regimen consisting of once weekly administration starting on Day 14 (weeks 2 to 6). Subcutaneous injections were performed in clock-wise rotations at 4 sites on the back; one site per dose. The injection sites were delineated by tattoo, while sedated using ketamine, and were separated by a minimum of 3 cm.
To evaluate the effect of ISIS oligonucleotides on hepatic function, the monkeys were fasted overnight. Approximately, 1.5 mL of blood samples were collected on day 44 from all the study groups. Blood was collected in tubes without anticoagulant for serum separation. The tubes were kept at room temperature for a minimum of 90 min and then centrifuged at 3,000 rpm for 10 min. Levels of various liver function markers were measured using a Toshiba 120FR NEO chemistry analyzer (Toshiba Co., Japan).

[8] = cynomolgus monkey, in vivo, sc, 40 mg/kg; remark: listed apart in the source
[9] = cynomolgus monkey, in vivo, sc, 40 mg/kg; remark: listed apart in the source
[10] = cynomolgus monkey, in vivo, sc, 40 mg/kg; remark: listed apart in the source
[11] = C4-2B MR cells, 1 μM ASO free uptake, 2 days (Example 15)

## AAGTTGTAGTAGTCGC (kA*kA*kG*dT*dT*dG*dT*dA*dG*dT*dA*dG*dT*k[5mC]*kG*k[5mC]) [ISIS 549372, targets exon 1]
full-length AR; C4-2B MR cells (Example 16)
  levels of full-length AR (Western analysis): reduced levels of full-length AR and AR-V7
full-length AR; [11]
  full-length AR (western blot): reduced full-length AR and AR-V7 more extensively than treatment with either ISIS 554221 or ISIS 549434
AR-V7; C4-2B MR cells (Example 16)
  levels of AR-V7 (Western analysis): reduced levels of full-length AR and AR-V7
AR-V7; [11]
  AR-V7 (western blot): reduced full-length AR and AR-V7 more extensively than treatment with either ISIS 554221 or ISIS 549434
Total AR mRNA
  total AR transcript levels: reduced total AR transcript levels in a dose dependent manner more extensively than treatment with ISIS 554221
KLK3 mRNA
  AR target gene KLK3 mRNA levels: reduced target gene levels in a dose dependent manner more extensively than treatment with ISIS 554221
KLK2 mRNA
  AR target gene KLK2 mRNA levels: reduced target gene levels in a dose dependent manner more extensively than treatment with ISIS 554221
C4-2B MR cells
  proliferation of C4-2B MR cells: reduced proliferation of the cells in a dose dependent manner more extensively than treatment with ISIS 554221
C4-2B cells [1]; 0.1 μM ASO + MDV3100 1 μM, 6 days
  Percent inhibition of C4-2B cell proliferation with 0.1 μM ASO: 66%
C4-2B cells [1]; 0.1 μM ASO + MDV3100 […], 6 days
  Percent inhibition of C4-2B cell proliferation with 0.1 μM ASO: 44%
C4-2B cells [1]; 0.1 μM ASO, MDV3100 0 μM, 6 days
  Percent inhibition of C4-2B cell proliferation with 0.1 μM ASO: 23%
C4-2B cells [1]; 0.2 μM ASO + MDV3100 1 μM, 6 days
  Percent inhibition of C4-2B cell proliferation with 0.2 μM ASO: 77%
C4-2B cells [1]; 0.2 μM ASO + MDV3100 […], 6 days
  Percent inhibition of C4-2B cell proliferation with 0.2 μM ASO: 69%
C4-2B cells [1]; 0.2 μM ASO, MDV3100 0 μM, 6 days
  Percent inhibition of C4-2B cell proliferation with 0.2 μM ASO: 59%
C4-2B cells [1]; C4-2B cells
  synergy with MDV3100: synergistic with MDV3100
C4-2B cells [1]; C4-2B cells, 0.1 μM ASO in combination with […] MDV3100
  cell proliferation inhibited, combination: 66%
C4-2B cells [1]; C4-2B cells, ASO alone at 0.1 μM
  inhibited cell proliferation, ASO alone: 23%
C4-2B cells [1]; C4-2B cells, ASO alone, 6 days, Table 46 (0.1 μM ASO)
  reduced cell proliferation, ASO alone: 59%
C4-2B cells [1]; C4-2B cells, versus equal molar ISIS 554221 + MDV3100
  prostate cancer cell proliferation, ASO in combination with MDV3100: inhibited prostate cancer cell proliferation to a greater extent than an equal molar concentration of ISIS 554221 in combination of MDV3100
AR full-length mRNA; dose 5.0 nM
  Percent inhibition of AR full-length mRNA: 53%
AR full-length mRNA; dose 16.7 nM
  Percent inhibition of AR full-length mRNA: 64%
AR full-length mRNA; dose 50.0 nM
  Percent inhibition of AR full-length mRNA: 78%
[2]; dose 5.0 nM
  Percent inhibition of AR splice variant, V7: 35%
[2]; dose 16.7 nM
  Percent inhibition of AR splice variant, V7: 56%
[2]; dose 50.0 nM
  Percent inhibition of AR splice variant, V7: 82%
CWR22-RV1 cells; dose 5.0 nM
  Percent inhibition of cell proliferation: 0%
CWR22-RV1 cells; dose 16.7 nM
  Percent inhibition of cell proliferation: 25%
CWR22-RV1 cells; dose 50.0 nM
  Percent inhibition of cell proliferation: 53%
AR mRNA [3]; free uptake 0.04-5.00 μM
  AR mRNA expression: inhibited AR mRNA expression more potently than ISIS 554221
AR mRNA [3]; dose 0.04 μM
  Percent inhibition of AR full-length mRNA: 10%
AR mRNA [3]; dose 0.20 μM
  Percent inhibition of AR full-length mRNA: 36%
AR mRNA [3]; dose 1.00 μM
  Percent inhibition of AR full-length mRNA: 73%
AR mRNA [3]; dose 5.00 μM
  Percent inhibition of AR full-length mRNA: 80%
C4-2B cells [4]; dose 0.04 μM
  Percent inhibition of cell proliferation: 8%
C4-2B cells [4]; dose 0.20 μM
  Percent inhibition of cell proliferation: 34%
C4-2B cells [4]; dose 1.00 μM
  Percent inhibition of cell proliferation: 44%
C4-2B cells [4]; dose 5.00 μM
  Percent inhibition of cell proliferation: 45%

## TGATTTAATGGTTGCA [ISIS 569216] (cEt/MOE gapmer chemistry, further chemistry not given here)
AR mRNA [5]
  AR mRNA expression inhibited compared to the control group: 48%
MDA-MB-453 tumor; Day 16
  Tumor volume: 134
MDA-MB-453 tumor; Day 23
  Tumor volume: 142
MDA-MB-453 tumor; Day 30
  Tumor volume: 173
MDA-MB-453 tumor; Day 37
  Tumor volume: 125
MDA-MB-453 tumor; Day 44
  Tumor volume: 92
MDA-MB-453 tumor; Day 51
  Tumor volume: 73
MDA-MB-453 tumor; Study 1, MDA-MB-453 model
  Tumor volumes: tumor volumes were significantly decreased
[6]
  Body Wt: 2.6 kg
  Heart weight: 9.3 g
  Kidney weight: 15 g
  Liver weight: 71 g
  Mesenteric lymph nodes weight: 2.7 g
  Spleen weight: 4.9 g
[7]
  ALT: 75 IU/L
  AST: 93 IU/L
  Albumin: 3.7 g/dL
[8]
  HCT: 43%
  Hemoglobin: 12.8 g/dL
  Platelets: 504000 µL
  RBC: 5.6e+06 µL
  WBC: 12200 µL
[9]
  Plasma BUN: 28.4 mg/dL
  Plasma Creatinine: 0.81 mg/dL
[10]
  C3 (% of baseline): 94 % of baseline
  CRP: 3.6 mg/dL
